Data on three compounds can be found in US10471118B2, “Retinylamine derivitives for treatment of ocular disorders” (CASE WESTERN RESERVE UNIVERSITY, priority 2014, dated 2019).

Data set [1] concerns Abca4^−/−Rdh8^−/− mice. Nature of the data set: Light-induced retinal degeneration in Abca4-/-Rdh8-/- mice (OCT, ERG, histology), Example 1. In kind it is in vivo, mouse. The note with it: for protection against light-induced retinal degeneration (ONL thickness from OCT): 0.875 μmol per mouse oral gavage 16 h before 10,000 lux 1 h, OCT after 3 days in dark. As to the method:
Abca4^−/−Rdh8^−/− double knockout mice were housed in the animal facility at the School of Medicine, Case Western Reserve University, where they were maintained under either complete darkness or a 12-h light (−10 1×) and 12-h dark cycle. All retinylamine tested were dissolved or suspended in 100 μl of vegetable oil with less than 10% (v/v) DMSO and were administered by oral gavage with a 22-gauge feeding needle. Experimental manipulations in the dark were done under dim red light transmitted through a Kodak No. 1 safelight filter (transmittance >560 nm). All animal procedures and experiments were approved by the Case Western Reserve University Animal Care Committees and conformed to recommendations of the American Veterinary Medical Association Panel on Euthanasia and the Association of Research for Vision and Ophthalmology.
After dark adaptation for 48 h, one or two Abca4^−/−Rdh8^−/− mice with pupils dilated by 1% tropicamide were exposed to fluorescent light (10,000 1×; 150-W spiral lamp, Commercial Electric) for 60 min in a white plastic bucket (Papersmith) with food and water and then kept in the dark. Histological and biochemical experiments were performed 3 days after exposure.
Ultra-high resolution spectral-domain OCT (SD-OCT; Bioptigen) and Heidelberg Retinal Angiograph II SLO (Heidelberg Engineering) were used for in vivo imaging of mouse retinas. Mice were anesthetized by intraperitoneal injection of a cocktail (20 μl g-1 body weight) containing ketamine (6 mg ml-1) and xylazine (0.44 mg ml-1) in 10 mM sodium phosphate, pH 7.2, and 100 mM NaCl. Pupils were dilated with 1% tropicamide. Four pictures acquired in the B-scan mode were used to construct each final averaged SD-OCT image.
(§1) All ERG procedures were performed by published methods. For single-flash recording, the duration of white-light flash stimuli (from 20 μs to 1 ms) was adjusted to provide a range of illumination intensities (from −3.7 to 1.6 log cd s m-2). Three to five recordings were made at sufficient intervals between flash stimuli (from 3 s to 1 min) to allow recovery from any photobleaching effects.
Mouse eyes were fixed for 24 h by rocking in a fixation solution (2 ml/eye) containing 4% paraformaldehyde and 1% glutaraldehyde in PBS. The tissue was processed through a series of ethanols, xylenes, and paraffins in a Tissue-Tek VIP automatic processor (Sakura, Torrance, Calif., USA), and 5-μm sections were cut using a Microm HM355 paraffin microtome (Thermo Fisher Scientific, Waltham, Mass., USA) and stained with hematoxylin and eosin (H&E) stain. Images of stained sections were captured by a Leica CTR6000 microscope attached to a CCD camera (Micropublisher 5.0 RTV, Qimaging Surray BC, Canada).
The effectiveness of the retinylamine derivatives on preventing light-induced retinal degeneration was tested in four-week old Abca4^−/−Rdh8^−/− mice according to the experimental scheme depicted in FIG. 1. After the mice were dark-adapted for 48 h, the drugs were gavaged at a dose 0.875 μmol/per mouse, which was selected based on the half protection dose for retinylamine after a dosing experiment, FIG. 2. Retinylamine was tested as a control at the same dose. […] Retinal integrity was assessed using optical coherence tomography (OCT). […] The mice without any treatment had photoreceptor cells completely destroyed after light illumination, and were used as a negative control. The retinal integrity was determined based on the thickness of outer nuclear layer (ONL) of the retinas measured from the OCT images. Reduced ONL thickness signifies the decreasing number of photoreceptors and retinal degeneration.

For data set [2], the system named is ARPE19 cells. In words: ARPE19 cell uptake. In kind it is cell-based, human. The note with it: 10 μM, 16 h, compared with Ret-NH2. As to the method:
The ARPE19 cells (human RPE cells purchased from American Type Culture Collection) were plated in 6-well plates using Dulbecco's Modified Eagle Medium (DMEM) and allowed to grow to 90% confluency. The cells were then incubated with DMEM containing 10 μM derivatives for 16 hours under dark room conditions. Control group was cell without drug. Medium was removed and cells were washed three times by PBS after 16 h of incubation. Cells were then collected. Samples were treated with 400 μl of methanol, homogenized at 37° C. for 1 h, followed by a centrifugation. The 100 μl of the supernatant was analyzed by reverse phase HPLC. Reverse-phase HPLC (analytical C18 reverse column; 5 μm; 250 mm×4.6 mm; flow rate of 1.0 mL/min; 60:40 acetonitrile:H2O (v:v) with 0.05% trifluoroacetic acid; detection at 325 nm) was utilized to determine retinylamine or its derivative in […].

Data set [3] relates to Caco-2 cells. In words: Caco-2 cell monolayer transport. In kind it is in vitro ADME, human. The note with it: 500 μM apical, PBS pH 6, within 24 h, compared with Ret-NH2. Here is the method: 1. Coating and preparing culture inserts for seeding: Rat tail collagen was diluted 1:9 with 0.5% acetic acid. The resulting solution (200 ul) was added to each insert to coat the surface. The inserts were air-dried overnight, followed by a UV irradiation for 45 min to sterilize the inserts. 2. Seeding cells onto an insert: A concentration of 4×10^5 cells/well EMEM solution containing 20% FBS was added to the precoated insert. Another 2 ml of fresh EMEM media was added to the other side (bottom). The media was changed after 1 day of incubation and every other day after that. The cells were cultured for 21 days until they were mature. 3. Transport experiment: The media was aspirated out. The cell monolayers were washed with PBS three times. Cells were further incubated with PBS for 1 h under 37° C. to allow them to release all the materials that may be taken up during incubation. PBS solution was removed and the prodrug solution (500 μM in 2.0 ml PBS (pH=6) solution) was loaded to the apical side. The basolateral side was loaded with 2.5 ml fresh PBS solution. The plates were incubated under 37° C. Samples of 200 μl were withdrawn from the basolateral side at several time points within 24 h. The drug release amount was determined by UV spectrometer.
(Caco-2 monolayers are a common model of the intestinal barrier.)

The test system of data set [4] is C57BL/6J wild-type mice. In words: ERG retinal function in C57BL/6J wild-type mice after oral gavage. It is filed as in vivo. The note with it: 1.75 μmol per mouse oral; for ERG signal compared with nontreated control: 6 h post-treatment; for ERG signal compared with untreated control: 24 h post treatment. As to the method:
as §1
Strong inhibition of retinoid cycle could cause temporary vision impairment. Electroretinograms (ERGs) were recorded to in retinal function in C57BL/6J wild-type mice at 6 and 24 h after oral gavage of RVG, RF or Ret-NH2 at a dose of 1.75 μmol per mouse.

Data set [5] in a line: All-trans-retinal Schiff base formation. The note with it: 0.2 mM drug with all-trans-retinal in ethanol 2 h at room temperature. As to the method: Incubate Ret-NH2 and retinylamine derivatives RVG, RF (0.2 mM) with all-trans-retinal (2 mM) in ethanol 2 h at room temperature, retinyl imines separated by reverse phase HPLC were identified on the basis of both their characteristic UV-vis spectra upon protonation and spectra obtained by mass spectrometry (MS). HPLC condition: analytical C18 reverse column; 5 μm; 250 mm×4.6 mm; flow rate of 0.5 mL/min; mobile phase acetonitrile:H2O (v:v) with 0.05% trifluoroacetic acid (0-15 min acetonitrile from 50% to 100%, 15-30 min 100% acetonitrile); detection at 325 nm.

Molecules are shown by their SMILES. Entries after “also recorded” stand apart in the source; their conditions may differ.

As for `CC1=C(/C=C/C(C)=C/C=C/C(C)=C/CNC(=O)[C@@H](N)Cc2ccccc2)C(C)(C)CCC1` [RF, (S)-2-amino-N-((2E,4E,6E,8E)-3,7-dimethyl-9-(2,6,6-trimethylcyclohex-1-en-1-yl)nona-2,4,6,8-tetraen-1-yl)-3-phenylpropanamide], the “protection against light-induced retinal degeneration (ONL thickness from OCT)” value (“protection” for short) in data set [1] is recorded as “low protecting effect”. The “protection” value in data set [1] (listed as phenylalanyl) is recorded as “little protecting efficacy”. Besides, the “uptake in ARPE19 cells” value in data set [2] is given as “higher uptake in ARPE19 cells than Ret-NH2”. Also, the “transport through the Caco-2 monolayer” value in data set [3] is reported as “significantly higher transport through the Caco-2 monolayer”. Also, in data set [4], the “ERG signal compared with nontreated control” value is “attenuated ERG signal” and the “ERG signal compared with untreated control” value is on record as “recover to the magnitude of the untreated control mice”. In addition, the “Schiff base formation with atRAL” value in data set [5] is “able to form Schiff base with atRAL”.

As for `CC1=C(/C=C/C(C)=C/C=C/C(C)=C/CNC(=O)[C@@H](NC(=O)CN)C(C)C)C(C)(C)CCC1` [RVG, (S)-2-(2-aminoacetamido)-N-((2E,4E,6E,8E)-3,7-dimethyl-9-(2,6,6-trimethylcyclohex-1-en-1-yl)nona-2,4,6,8-tetraen-1-yl)-3-methylbutanamide], the “average scotopic a wave ERG peak amplitudes” value in data set [1] (0.875 μmol per mouse 16 h prior to light illumination, evaluated 7 days later) is “virtually the same as those without light-illumination (NLI)”. The “protection” value in data set [1] is “significant improvement on preventing light-induced retinopathy over retinyl amine”. In data set [1] (treated before intense light exposure, 7 days after light exposure), the “retina structure by histology (H&E)” value is given as “maintained intact retina structure; also recorded: protected Abca4^−/−Rdh8^−/− retina from light damage”. Further, the “uptake in ARPE19 cells” value in data set [2] was “higher uptake in ARPE19 cells than Ret-NH2”. Besides, the “transport through the Caco-2 monolayer” value in data set [3] is “significantly higher transport through the Caco-2 monolayer”. Moreover, in data set [4], the “ERG signal compared with nontreated control” value is “attenuated ERG signal” and the “ERG signal compared with untreated control” value is listed as “recover to the magnitude of the untreated control mice”. The “Schiff base formation with atRAL” value in data set [5] is recorded as “able to form Schiff base with atRAL”.

Consider `CC1=C(/C=C/C(C)=C/C=C/C(C)=C/CN)C(C)(C)CCC1` [Ret-NH2, (2E,4E,6E,8E)-3,7-dimethyl-9-(2,6,6-trimethylcyclohex-1-en-1-yl)nona-2,4,6,8-tetraen-1-amine], for which the “ERG signal in the retina” value in data set [4] (first 24 h after the treatment) is “no significant ERG signal was detected”. Besides, in data set [5], the “Schiff base formation with atRAL” value is on record as “able to form Schiff base with atRAL”.
